Assay results from article PMC6934184, “Selective DNA-PKcs inhibition extends the therapeutic index of localized radiotherapy and chemotherapy” (The Journal of Clinical Investigation, 2019).

Biological target: T1, MYO3B (MYO3 beta) (Homo sapiens, UniProt Q8WXR4)
T1 construct: purchased Thermo Fisher Scientific (Life Technologies) SelectScreen
Experiment: SelectScreen LanthaScreen
Assay type: binding
Settings: read-out: % displacement
Outline: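 NU5455 was profiled across the SelectScreen Broad panel of kinase activity and binding assays. Z'LYTE reactions such as CSF1R ran at apparent Km ATP, while the Adapta CAMK1 assay used ATP listed as 10. Values are given as percent.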

T1 sequence (Q8WXR4 whole entry): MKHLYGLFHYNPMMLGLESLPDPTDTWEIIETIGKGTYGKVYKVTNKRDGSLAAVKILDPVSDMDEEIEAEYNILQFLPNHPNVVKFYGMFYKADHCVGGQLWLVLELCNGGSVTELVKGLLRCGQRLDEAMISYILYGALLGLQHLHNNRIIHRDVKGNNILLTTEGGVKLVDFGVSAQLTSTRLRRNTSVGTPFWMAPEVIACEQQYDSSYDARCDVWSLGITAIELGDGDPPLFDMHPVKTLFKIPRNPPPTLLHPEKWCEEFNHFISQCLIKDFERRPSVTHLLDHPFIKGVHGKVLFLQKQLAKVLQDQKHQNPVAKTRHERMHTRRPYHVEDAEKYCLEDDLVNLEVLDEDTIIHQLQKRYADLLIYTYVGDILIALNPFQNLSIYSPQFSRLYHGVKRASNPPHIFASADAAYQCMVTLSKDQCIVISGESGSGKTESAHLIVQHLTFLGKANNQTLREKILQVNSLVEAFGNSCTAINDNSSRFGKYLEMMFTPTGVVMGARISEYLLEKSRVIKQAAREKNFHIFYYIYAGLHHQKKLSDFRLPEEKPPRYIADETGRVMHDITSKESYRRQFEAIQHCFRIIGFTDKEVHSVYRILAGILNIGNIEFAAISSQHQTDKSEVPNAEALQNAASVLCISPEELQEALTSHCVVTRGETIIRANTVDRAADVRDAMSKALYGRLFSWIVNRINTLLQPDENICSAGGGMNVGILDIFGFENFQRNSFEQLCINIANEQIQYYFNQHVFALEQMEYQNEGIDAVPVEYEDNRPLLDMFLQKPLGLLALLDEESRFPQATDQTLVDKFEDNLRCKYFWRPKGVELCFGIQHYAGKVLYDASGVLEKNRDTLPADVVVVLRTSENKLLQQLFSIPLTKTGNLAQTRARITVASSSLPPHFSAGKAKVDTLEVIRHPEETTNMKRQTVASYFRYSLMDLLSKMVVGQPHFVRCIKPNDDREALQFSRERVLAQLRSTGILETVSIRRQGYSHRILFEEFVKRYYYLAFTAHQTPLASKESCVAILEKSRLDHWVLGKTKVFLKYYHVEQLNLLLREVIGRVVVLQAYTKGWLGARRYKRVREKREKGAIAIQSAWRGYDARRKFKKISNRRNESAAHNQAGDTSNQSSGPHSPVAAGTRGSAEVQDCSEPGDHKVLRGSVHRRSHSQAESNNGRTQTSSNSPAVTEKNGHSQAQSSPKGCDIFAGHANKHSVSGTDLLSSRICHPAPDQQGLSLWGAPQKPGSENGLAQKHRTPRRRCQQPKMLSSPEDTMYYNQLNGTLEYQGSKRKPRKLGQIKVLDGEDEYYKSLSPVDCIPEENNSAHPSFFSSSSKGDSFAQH

Work on `CN(C(=O)CN1CCOCC1)c1ccc2sc3c(-c4cccc5c(=O)cc(N6CC7CCC(C6)O7)oc45)cccc3c2c1` [NU5455] yielded an inhibition at 1 µM of 2.3%.
